Results as given in PubChem BioAssay (NCI).
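Each compound was tested at five concentrations against cells in 96-well plates for 48 hours. Here, GI50 denotes the concentration required for 50% inhibition of growth. The concentration for full growth arrest is given as TGI.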

Assays:
Assay in all cases: growth of human tumour cells (NCI), 48 h
786-0 renal = system: 786-0 renal
A498 renal = system: A498 renal
A549 NSCLC = system: A549 NSCLC
ACHN renal = system: ACHN renal
BT-549 breast = system: BT-549 breast
CAKI-1 renal = system: CAKI-1 renal
CCRF-CEM leukemia = system: CCRF-CEM leukemia
COLO 205 colon = system: COLO 205 colon
DU-145 prostate = system: DU-145 prostate
EKVX NSCLC = system: EKVX NSCLC
HCC-2998 colon = system: HCC-2998 colon
HCT-116 colon = system: HCT-116 colon
HCT-15 colon = system: HCT-15 colon
HL-60(TB) leukemia = system: HL-60(TB) leukemia
HOP-62 NSCLC = system: HOP-62 NSCLC
HS 578T breast = system: HS 578T breast
HT29 colon = system: HT29 colon
IGROV1 ovarian = system: IGROV1 ovarian
K-562 leukemia = system: K-562 leukemia
KM12 colon = system: KM12 colon
LOX IMVI melanoma = system: LOX IMVI melanoma
M14 melanoma = system: M14 melanoma
MALME-3M melanoma = system: MALME-3M melanoma
MCF7 breast = system: MCF7 breast
MDA-MB-231 breast = system: MDA-MB-231 breast
MDA-MB-435 = system: MDA-MB-435
MOLT-4 leukemia = system: MOLT-4 leukemia
NCI-H226 lung = system: NCI-H226 lung
NCI-H23 lung = system: NCI-H23 lung
NCI-H460 lung = system: NCI-H460 lung
NCI-H522 lung = system: NCI-H522 lung
NCI/ADR-RES ovarian = system: NCI/ADR-RES ovarian
OVCAR-3 ovarian = system: OVCAR-3 ovarian
OVCAR-4 ovarian = system: OVCAR-4 ovarian
OVCAR-5 ovarian = system: OVCAR-5 ovarian
OVCAR-8 ovarian = system: OVCAR-8 ovarian
PC-3 prostate = system: PC-3 prostate
RPMI-8226 leukemia = system: RPMI-8226 leukemia
RXF 393 renal = system: RXF 393 renal
SF-268 CNS = system: SF-268 CNS
SF-295 CNS = system: SF-295 CNS
SF-539 CNS = system: SF-539 CNS
SK-MEL-2 melanoma = system: SK-MEL-2 melanoma
SK-MEL-28 melanoma = system: SK-MEL-28 melanoma
SK-MEL-5 melanoma = system: SK-MEL-5 melanoma
SK-OV-3 ovarian = system: SK-OV-3 ovarian
SN12C renal = system: SN12C renal
SNB-19 CNS = system: SNB-19 CNS
SNB-75 CNS = system: SNB-75 CNS
SR leukemia = system: SR leukemia
SW-620 colon = system: SW-620 colon
T-47D breast = system: T-47D breast
TK-10 renal = system: TK-10 renal
U251 CNS = system: U251 CNS
UACC-257 melanoma = system: UACC-257 melanoma
UACC-62 melanoma = system: UACC-62 melanoma
UO-31 renal = system: UO-31 renal

In the case of `COc1cccc(N2CCN(c3ncnc4cc[nH]c34)CC2)c1`, the GI50 (786-0 renal) is reported as 29.1 µM, the TGI (786-0 renal) is reported as > 100 µM and the GI50 (A498 renal) is reported as 1.65 µM. The TGI (A498 renal) was 79.3 µM, the GI50 (A549 NSCLC) was 12.2 µM and the TGI (A549 NSCLC) was > 100 µM. The GI50 (ACHN renal) was 19 µM, the TGI (ACHN renal) was > 100 µM and the GI50 (BT-549 breast) was 2.66 µM. The TGI (BT-549 breast) was 26.8 µM, the GI50 (CAKI-1 renal) was 5.75 µM and the TGI (CAKI-1 renal) was > 100 µM. The GI50 (CCRF-CEM leukemia) was 9.61 µM, the TGI (CCRF-CEM leukemia) was > 100 µM and the GI50 (COLO 205 colon) was 11.2 µM. For the same compound, the TGI (COLO 205 colon) was 45.5 µM, the GI50 (DU-145 prostate) was 43.2 µM and the TGI (DU-145 prostate) was > 100 µM. For the same compound, the GI50 (EKVX NSCLC) was 0.94 µM, the TGI (EKVX NSCLC) was > 100 µM and the GI50 (HCC-2998 colon) was 7.19 µM. For the same compound, the TGI (HCC-2998 colon) was > 100 µM, the GI50 (HCT-116 colon) was 3.67 µM and the TGI (HCT-116 colon) was > 100 µM. For the same compound, the GI50 (HCT-15 colon) was 24.4 µM, the TGI (HCT-15 colon) was > 100 µM and the GI50 (HL-60(TB) leukemia) was 5.84 µM. The TGI (HL-60(TB) leukemia) was 74 µM, the GI50 (HOP-62 NSCLC) was 17.8 µM and the TGI (HOP-62 NSCLC) was > 100 µM. The GI50 (HS 578T breast) was 35.7 µM, the TGI (HS 578T breast) was > 100 µM and the GI50 (HT29 colon) was 20 µM. For the same compound, the TGI (HT29 colon) was > 100 µM, the GI50 (IGROV1 ovarian) was 32.2 µM and the TGI (IGROV1 ovarian) was > 100 µM. For the same compound, the GI50 (K-562 leukemia) was 1.26 µM, the TGI (K-562 leukemia) was > 100 µM and the GI50 (KM12 colon) was 9.8 µM. For the same compound, the TGI (KM12 colon) was 85 µM, the GI50 (LOX IMVI melanoma) was 13.9 µM and the TGI (LOX IMVI melanoma) was > 100 µM. For the same compound, the GI50 (M14 melanoma) was 3.76 µM, the TGI (M14 melanoma) was 26.3 µM and the GI50 (MALME-3M melanoma) was 10 µM. The TGI (MALME-3M melanoma) was 55.3 µM, the GI50 (MCF7 breast) was 2.65 µM and the TGI (MCF7 breast) was 47.4 µM. The GI50 (MDA-MB-231 breast) was 79.9 µM, the TGI (MDA-MB-231 breast) was > 100 µM and the GI50 (MDA-MB-435) was 2.73 µM. The TGI (MDA-MB-435) was 19 µM, the GI50 (MOLT-4 leukemia) was 2.46 µM and the TGI (MOLT-4 leukemia) was 21.4 µM. The GI50 (NCI-H226 lung) was 1.59 µM, the TGI (NCI-H226 lung) was 75.7 µM and the GI50 (NCI-H23 lung) was 3.47 µM. For the same compound, the TGI (NCI-H23 lung) was > 100 µM, the GI50 (NCI-H460 lung) was 7.19 µM and the TGI (NCI-H460 lung) was > 100 µM. The GI50 (NCI-H522 lung) was 8.78 µM, the TGI (NCI-H522 lung) was 64.1 µM and the GI50 (NCI/ADR-RES ovarian) was 2.87 µM. For the same compound, the TGI (NCI/ADR-RES ovarian) was 40.4 µM, the GI50 (OVCAR-3 ovarian) was 9.51 µM and the TGI (OVCAR-3 ovarian) was > 100 µM. The GI50 (OVCAR-4 ovarian) was 1.73 µM, the TGI (OVCAR-4 ovarian) was > 100 µM and the GI50 (OVCAR-5 ovarian) was 43.6 µM. The TGI (OVCAR-5 ovarian) was > 100 µM, the GI50 (OVCAR-8 ovarian) was 3.46 µM and the TGI (OVCAR-8 ovarian) was 56.1 µM. The GI50 (PC-3 prostate) was 6.99 µM, the TGI (PC-3 prostate) was > 100 µM and the GI50 (RPMI-8226 leukemia) was 2.78 µM. The TGI (RPMI-8226 leukemia) was 94.8 µM, the GI50 (RXF 393 renal) was 33.6 µM and the TGI (RXF 393 renal) was > 100 µM. For the same compound, the GI50 (SF-268 CNS) was 14.9 µM, the TGI (SF-268 CNS) was > 100 µM and the GI50 (SF-295 CNS) was 1.57 µM. The TGI (SF-295 CNS) was 43 µM, the GI50 (SF-539 CNS) was 20.8 µM and the TGI (SF-539 CNS) was > 100 µM. The GI50 (SK-MEL-2 melanoma) was 10.3 µM, the TGI (SK-MEL-2 melanoma) was 50.9 µM and the GI50 (SK-MEL-28 melanoma) was 10.7 µM. The TGI (SK-MEL-28 melanoma) was 62.3 µM, the GI50 (SK-MEL-5 melanoma) was 0.394 µM and the TGI (SK-MEL-5 melanoma) was 2.77 µM. The GI50 (SK-OV-3 ovarian) was 51.5 µM, the TGI (SK-OV-3 ovarian) was > 100 µM and the GI50 (SN12C renal) was 32.6 µM. For the same compound, the TGI (SN12C renal) was > 100 µM, the GI50 (SNB-19 CNS) was > 100 µM and the TGI (SNB-19 CNS) was > 100 µM. For the same compound, the GI50 (SNB-75 CNS) was 15.1 µM, the TGI (SNB-75 CNS) was 60.4 µM and the GI50 (SR leukemia) was 1.73 µM. The TGI (SR leukemia) was > 100 µM, the GI50 (SW-620 colon) was 68.6 µM and the TGI (SW-620 colon) was > 100 µM. The GI50 (T-47D breast) was 2.92 µM, the TGI (T-47D breast) was 44.1 µM and the GI50 (TK-10 renal) was 25.5 µM. For the same compound, the TGI (TK-10 renal) was > 100 µM, the GI50 (U251 CNS) was 12.7 µM and the TGI (U251 CNS) was > 100 µM. The GI50 (UACC-257 melanoma) was 2.32 µM, the TGI (UACC-257 melanoma) was 29.2 µM and the GI50 (UACC-62 melanoma) was 6.05 µM. For the same compound, the TGI (UACC-62 melanoma) was 39.8 µM, the GI50 (UO-31 renal) was 7.37 µM and the TGI (UO-31 renal) was > 100 µM.
